From patent US20180055032A1, “ODORS FOR PSYLLID TRAPPING, REPELLING AND CONTROL” (The Regents of the University of California, priority 2011, published 2018)

How the values were obtained:
Assay type in all cases: cell-based, Diaphorina citri
[1] = tested on: neuron 4A (rhinarial plate on flagellomere 4); assay: single-sensillum electrophysiology, odor response of neuron 4A; conditions: for odor response (frequency of action potentials during stimulus minus baseline), 4A: Table 1, odor diluted to 1%, 50 μL in cartridge; as to response to ultra-prolonged activators, 4A: key: 0, no response; +, >50 spikes/second; ++, >100 spikes/second; +++, >150 spikes/second
[2] = tested on: neuron 4B (rhinarial plate on flagellomere 4); conditions: for odor response (frequency of action potentials during stimulus minus baseline), 4B: Table 1, odor diluted to 1%, 50 μL in cartridge
[3] = tested on: neuron 7C (rhinarial plate on flagellomere 7); assay: single-sensillum electrophysiology, odor response of neuron 7C; conditions: for odor response (frequency of action potentials during stimulus minus baseline), 7C: Table 1, odor diluted to 1%, 50 μL in cartridge
[4] = tested on: neuron 2C (rhinarial plate on flagellomere 2); assay: single-sensillum electrophysiology, odor response of neuron 2C; conditions: for odor response (frequency of action potentials during stimulus minus baseline), 2C: Table 1, odor diluted to 1%, 50 μL in cartridge; as to response to ultra-prolonged activators, 2C: key: 0, no response; +, >50 spikes/second; ++, >100 spikes/second; +++, >150 spikes/second
[5] = tested on: neuron 7A (rhinarial plate on flagellomere 7); assay: single-sensillum electrophysiology, odor response of neuron 7A; conditions: for odor response (frequency of action potentials during stimulus minus baseline), 7A: Table 1, odor diluted to 1%, 50 μL in cartridge; as to all read-outs here: key: 0, no response; +, >50 spikes/second; ++, >100 spikes/second; +++, >150 spikes/second
[6] = tested on: neuron 4C (rhinarial plate on flagellomere 4); assay: single-sensillum electrophysiology, odor response of neuron 4C; conditions: for odor response (frequency of action potentials during stimulus minus baseline), 4C: Table 1, odor diluted to 1%, 50 μL in cartridge
[7] = tested on: neuron 2B (rhinarial plate on flagellomere 2); assay: single-sensillum electrophysiology, odor response of neuron 2B; conditions: for odor response (frequency of action potentials during stimulus minus baseline), 2B: Table 1, odor diluted to 1%, 50 μL in cartridge
[8] = tested on: neuron 6B (rhinarial plate on flagellomere 6); assay: single-sensillum electrophysiology, odor response of neuron 6B; conditions: for odor response (frequency of action potentials during stimulus minus baseline), 6B: Table 1, odor diluted to 1%, 50 μL in cartridge
[9] = tested on: neuron 6A (rhinarial plate on flagellomere 6); assay: single-sensillum electrophysiology, odor response of neuron 6A; conditions: for odor response (frequency of action potentials during stimulus minus baseline), 6A: Table 1, odor diluted to 1%, 50 μL in cartridge
[10] = tested on: neuron 7B (rhinarial plate on flagellomere 7); conditions: for odor response (frequency of action potentials during stimulus minus baseline), 7B: Table 1, odor diluted to 1%, 50 μL in cartridge
[11] = tested on: neuron 6C (rhinarial plate on flagellomere 6); assay: single-sensillum electrophysiology, odor response of neuron 6C; conditions: for odor response (frequency of action potentials during stimulus minus baseline), 6C: Table 1, odor diluted to 1%, 50 μL in cartridge
[12] = tested on: neuron 2A (rhinarial plate on flagellomere 2); assay: single-sensillum electrophysiology, odor response of neuron 2A; conditions: for odor response (frequency of action potentials during stimulus minus baseline), 2A: Table 1, odor diluted to 1%, 50 μL in cartridge; as to all read-outs here: key: 0, no response; +, >50 spikes/second; ++, >100 spikes/second; +++, >150 spikes/second
[13] = Table 3, 10^−2 in paraffin oil, 50 μL, odor puff of 0.5 sec

| SMILES | odor response (frequency of action potentials during stimulus minus baseline), 4A [1] | odor response (frequency of action potentials during stimulus minus baseline), 4B [2] | odor response (frequency of action potentials during stimulus minus baseline), 7C [3] | odor response (frequency of action potentials during stimulus minus baseline), 2C [4] | odor response (frequency of action potentials during stimulus minus baseline), 7A [5] | odor response (frequency of action potentials during stimulus minus baseline), 4C [6] | odor response (frequency of action potentials during stimulus minus baseline), 2B [7] | odor response (frequency of action potentials during stimulus minus baseline), 6B [8] | odor response (frequency of action potentials during stimulus minus baseline), 6A [9] | odor response (frequency of action potentials during stimulus minus baseline), 7B [10] | odor response (frequency of action potentials during stimulus minus baseline), 6C [11] | odor response (frequency of action potentials during stimulus minus baseline), 2A [12] | other results |
| --- | --- | --- | --- | --- | --- | --- | --- | --- | --- | --- | --- | --- | --- |
| CCCCCCCCO [1-octanol] | 0 | + (+, >50 spikes/second) | 0 | 0 | 0 | 0 | 0 | + (+, >50 spikes/second) | 0 | 0 | 0 | 0 |  |
| C=CC(O)CCCCC (stereo not drawn) [1-octen-3-ol] | 0 | 0 | 0 | 0 | 0 | 0 | 0 | + (+, >50 spikes/second) | 0 | 0 | 0 | 0 |  |
| CCCCCC(C)=O [2-heptanone] | 0 | + (+, >50 spikes/second) | 0 | + (+, >50 spikes/second) | 0 | 0 | 0 | + (+, >50 spikes/second) | 0 | 0 | 0 | 0 |  |
| CCCC(C)=O [2-pentanone] | 0 | + (+, >50 spikes/second) | 0 | 0 | 0 | 0 | 0 | + (+, >50 spikes/second) | 0 | 0 | 0 | 0 |  |
| CC(=O)CCC=C(C)C [6-methyl-5-hepten-2-one] | 0 | 0 | 0 | + (+, >50 spikes/second) | 0 | 0 | 0 | 0 | 0 | 0 | 0 | 0 |  |
| C=C(C)[C@H]1CC=C(C)C(=O)C1 [(+)-carvone] | 0 | ++ (++, >100 spikes/second) | 0 | 0 | 0 | 0 | 0 | ++ (++, >100 spikes/second) | 0 | 0 | 0 | 0 | response to ultra-prolonged activators, 4A [1, 13]: 0; response to ultra-prolonged activators, 4B [2, 13]: ++ (++, >100 spikes/second); response to ultra-prolonged activators, 7C [3, 13]: 0; response to ultra-prolonged activators, 2C [4, 13]: 0; response to ultra-prolonged activators, 7A [5, 13]: 0; response to ultra-prolonged activators, 4C [6, 13]: 0; response to ultra-prolonged activators, 2B [7, 13]: 0; response to ultra-prolonged activators, 6B [8, 13]: ++ (++, >100 spikes/second); response to ultra-prolonged activators, 6A [9, 13]: 0; response to ultra-prolonged activators, 7B [10, 13]: 0; response to ultra-prolonged activators, 6C [11, 13]: 0; response to ultra-prolonged activators, 2A [12, 13]: 0 |
| CCC/C=C/C=O [E2-hexenal] | 0 | + (+, >50 spikes/second) | 0 | ++ (++, >100 spikes/second) | 0 | 0 | 0 | + (+, >50 spikes/second) | 0 | 0 | 0 | 0 |  |
| C=C/C(C)=C/CC=C(C)C [E-β-Ocimene] | 0 | 0 | 0 | ++ (++, >100 spikes/second) | 0 | 0 | 0 | 0 | 0 | 0 | 0 | 0 |  |
| CCC/C=C\CO [Z2-hexanol] | 0 | + (+, >50 spikes/second) | 0 | 0 | 0 | 0 | 0 | + (+, >50 spikes/second) | 0 | 0 | 0 | 0 |  |
| CC/C=C\CC=O [Z3-hexenal] | ++ (++, >100 spikes/second) | 0 | 0 | 0 | 0 | 0 | 0 | 0 | ++ (++, >100 spikes/second) | + (+, >50 spikes/second) | 0 | 0 |  |
| CC/C=C\CCO [Z3-hexenol] | 0 | + (+, >50 spikes/second) | 0 | 0 | 0 | 0 | 0 | + (+, >50 spikes/second) | 0 | 0 | 0 | 0 |  |
